Test system: Rattus norvegicus
Assay: Effect of factor I selectivity on hypotension was evaluated in rats after administration intravenously at a dose(bolus) of 20umol/Kg, activity expressed as drop in blood pressure
Assay type: functional

SMILES	BP
CC(C)(CN(CC(=O)NC(CCCN=C(N)N)B(O)O)C(=O)CCc1ccccc1)c1ccccc1 (stereo unspecified)	>40 mmHg

Target: Coagulation factor X (Homo sapiens, UniProt P00742)
Assay: Binding affinity towards coagulation factor Xa.

Coagulation factor X, sequence (P00742 41-179 limits assumed): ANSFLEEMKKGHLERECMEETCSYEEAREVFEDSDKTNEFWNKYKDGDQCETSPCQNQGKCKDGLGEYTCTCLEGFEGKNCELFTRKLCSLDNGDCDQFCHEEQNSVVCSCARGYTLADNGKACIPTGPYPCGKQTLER
Coagulation factor X, sequence (P00742 235-488 limits assumed): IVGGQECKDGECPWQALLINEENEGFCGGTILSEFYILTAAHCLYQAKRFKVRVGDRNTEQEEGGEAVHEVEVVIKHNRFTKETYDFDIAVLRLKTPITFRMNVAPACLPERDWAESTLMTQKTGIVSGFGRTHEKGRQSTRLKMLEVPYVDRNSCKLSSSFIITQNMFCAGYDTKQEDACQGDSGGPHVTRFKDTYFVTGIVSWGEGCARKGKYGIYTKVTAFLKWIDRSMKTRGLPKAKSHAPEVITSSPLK

SMILES	Ki
Cc1cc(C)cc(CCN(CC(=O)NC(CCCNC(=N)N)B(O)O)C(=O)CCc2ccccc2)c1 (stereo unspecified)	15 nM
CC(C)(CN(CC(=O)NC(CCCNC=N)B(O)O)C(=O)CCc1ccccc1)c1ccccc1 (stereo unspecified)	80 nM
Cc1cc(C)cc(CCN(CC(=O)NC(CCCCN)B(O)O)C(=O)CCc2ccccc2)c1 (stereo unspecified)	54 nM
N=CNCCCC(NC(=O)CN(CCc1ccccc1)C(=O)CCc1ccccc1)B(O)O (stereo unspecified)	22 nM
N=CNCCCC(NC(=O)CN(CC1(c2ccccc2)CCCC1)C(=O)CCc1ccccc1)B(O)O (stereo unspecified)	630 nM

The remaining lines, values ahead:

Ki	SMILES
810 nM	Cc1cc(C)cc(C(C)(C)CN(CC(=O)NC(CCCCN)B(O)O)C(=O)CCc2ccccc2)c1 (stereo unspecified)
392 nM	Cc1cc(C)cc(C(C)(C)CN(CC(=O)NC(CCC/N=C/N)B(O)O)C(=O)CCc2ccccc2)c1 (stereo unspecified)
320 nM	CC(C)(CN(CC(=O)NC(CCCCN)B(O)O)C(=O)CCc1ccccc1)c1ccccc1 (stereo unspecified)
300 nM	N=CNCCCC(NC(=O)CN(CC1(c2ccccc2)CC1)C(=O)CCc1ccccc1)B(O)O (stereo unspecified)
130 nM	NCCCCC(NC(=O)CN(CCc1ccccc1)C(=O)CCc1ccccc1)B(O)O (stereo unspecified)
99 nM	CC(C)(CN(CC(=O)NC(CCCNC(=N)N)B(O)O)C(=O)CCc1ccccc1)c1ccccc1 (stereo unspecified)

Test system: not listed separately
Assay: Selectivity ratio for binding to factor I (IC50) and thrombin (Ki)

SMILES	Ratio
CC(C)(CN(CC(=O)NC(CCCN=C(N)N)B(O)O)C(=O)CCc1ccccc1)c1ccccc1 (stereo unspecified)	2170
Cc1cc(C)cc(CCN(CC(=O)NC(CCCCN)B(O)O)C(=O)CCc2ccccc2)c1 (stereo unspecified)	607

Other lines, results leading:

Ratio	SMILES
5980	Cc1cc(C)cc(C(C)(C)CN(CC(=O)NC(CCCCN)B(O)O)C(=O)CCc2ccccc2)c1 (stereo unspecified)
4510	Cc1cc(C)cc(C(C)(C)CN(CC(=O)NC(CCC/N=C/N)B(O)O)C(=O)CCc2ccccc2)c1 (stereo unspecified)
3610	CC(C)(CN(CC(=O)NC(CCCCN)B(O)O)C(=O)CCc1ccccc1)c1ccccc1 (stereo unspecified)
3570	NCCCCC(NC(=O)CN(CCc1ccccc1)C(=O)CCc1ccccc1)B(O)O (stereo unspecified)

Test system: Rattus norvegicus
Assay: Alanine transaminase level was measured in rats after administration intravenously at a dose(bolus) of 20 umol/kg
Assay type: functional, organism-based
Parameters: unit not given here

Level	SMILES
53	CC(C)(CN(CC(=O)NC(CCCCN)B(O)O)C(=O)CCc1ccccc1)c1ccccc1 (stereo unspecified)
211	CC(C)(CN(CC(=O)NC(CCCN=C(N)N)B(O)O)C(=O)CCc1ccccc1)c1ccccc1 (stereo unspecified)
60	NCCCCC(NC(=O)CN(CCc1ccccc1)C(=O)CCc1ccccc1)B(O)O (stereo unspecified)
70	Cc1cc(C)cc(C(C)(C)CN(CC(=O)NC(CCC/N=C/N)B(O)O)C(=O)CCc2ccccc2)c1 (stereo unspecified)
78	Cc1cc(C)cc(C(C)(C)CN(CC(=O)NC(CCCCN)B(O)O)C(=O)CCc2ccccc2)c1 (stereo unspecified)

Target: Prothrombin (Homo sapiens, UniProt P00734)
Assay: Binding affinity towards thrombin was tested.

SMILES	Ki
Cc1cc(C)cc(CCN(CC(=O)NC(CCCNC(=N)N)B(O)O)C(=O)CCc2ccccc2)c1 (stereo unspecified)	0.58 nM
CC(C)(CN(CC(=O)NC(CCCNC=N)B(O)O)C(=O)CCc1ccccc1)c1ccccc1 (stereo unspecified)	1.2 nM
Cc1cc(C)cc(CCN(CC(=O)NC(CCCCN)B(O)O)C(=O)CCc2ccccc2)c1 (stereo unspecified)	0.28 nM
N=CNCCCC(NC(=O)CN(CCc1ccccc1)C(=O)CCc1ccccc1)B(O)O (stereo unspecified)	0.89 nM
N=CNCCCC(NC(=O)CN(CC1(c2ccccc2)CCCC1)C(=O)CCc1ccccc1)B(O)O (stereo unspecified)	3 nM

The next lines start with the values.

Ki	SMILES
0.41 nM	Cc1cc(C)cc(C(C)(C)CN(CC(=O)NC(CCCCN)B(O)O)C(=O)CCc2ccccc2)c1 (stereo unspecified)
0.53 nM	Cc1cc(C)cc(C(C)(C)CN(CC(=O)NC(CCC/N=C/N)B(O)O)C(=O)CCc2ccccc2)c1 (stereo unspecified)
0.36 nM	CC(C)(CN(CC(=O)NC(CCCCN)B(O)O)C(=O)CCc1ccccc1)c1ccccc1 (stereo unspecified)
0.83 nM	N=CNCCCC(NC(=O)CN(CC1(c2ccccc2)CC1)C(=O)CCc1ccccc1)B(O)O (stereo unspecified)
0.42 nM	NCCCCC(NC(=O)CN(CCc1ccccc1)C(=O)CCc1ccccc1)B(O)O (stereo unspecified)
0.06 nM	CC(C)(CN(CC(=O)NC(CCCNC(=N)N)B(O)O)C(=O)CCc1ccccc1)c1ccccc1 (stereo unspecified)

Target: Thrombin and coagulation factor X (Homo sapiens) (UniProt P00734+P00742)
Sequence (P00742 whole entry, looked up, other chains not shown): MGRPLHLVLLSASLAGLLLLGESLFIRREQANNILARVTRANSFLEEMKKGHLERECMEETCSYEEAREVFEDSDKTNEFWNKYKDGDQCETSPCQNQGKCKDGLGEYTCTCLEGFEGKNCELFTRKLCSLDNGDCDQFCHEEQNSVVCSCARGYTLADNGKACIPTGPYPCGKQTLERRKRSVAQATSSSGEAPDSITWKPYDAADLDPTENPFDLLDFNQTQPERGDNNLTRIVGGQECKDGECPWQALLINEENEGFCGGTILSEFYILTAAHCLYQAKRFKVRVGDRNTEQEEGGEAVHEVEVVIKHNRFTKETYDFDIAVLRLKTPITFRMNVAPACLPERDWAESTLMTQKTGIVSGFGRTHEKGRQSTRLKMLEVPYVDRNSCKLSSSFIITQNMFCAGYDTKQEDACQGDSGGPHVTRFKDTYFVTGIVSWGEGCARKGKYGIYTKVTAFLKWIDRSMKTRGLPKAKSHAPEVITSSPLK
Assay: Selectivity ratio for binding to factor Xa (Ki) and thrombin (Ki)
Assay type: protein assay

SMILES	Ratio
CC(C)(CN(CC(=O)NC(CCCN=C(N)N)B(O)O)C(=O)CCc1ccccc1)c1ccccc1 (stereo unspecified)	1650
Cc1cc(C)cc(CCN(CC(=O)NC(CCCCN)B(O)O)C(=O)CCc2ccccc2)c1 (stereo unspecified)	193

Other lines, results leading:

Ratio	SMILES
1980	Cc1cc(C)cc(C(C)(C)CN(CC(=O)NC(CCCCN)B(O)O)C(=O)CCc2ccccc2)c1 (stereo unspecified)
740	Cc1cc(C)cc(C(C)(C)CN(CC(=O)NC(CCC/N=C/N)B(O)O)C(=O)CCc2ccccc2)c1 (stereo unspecified)
889	CC(C)(CN(CC(=O)NC(CCCCN)B(O)O)C(=O)CCc1ccccc1)c1ccccc1 (stereo unspecified)
310	NCCCCC(NC(=O)CN(CCc1ccccc1)C(=O)CCc1ccccc1)B(O)O (stereo unspecified)

Test system: not listed separately
Assay: Inhibition of Coagulation factor I.

SMILES	IC50
CC(C)(CN(CC(=O)NC(CCCN=C(N)N)B(O)O)C(=O)CCc1ccccc1)c1ccccc1 (stereo unspecified)	130 nM
Cc1cc(C)cc(CCN(CC(=O)NC(CCCCN)B(O)O)C(=O)CCc2ccccc2)c1 (stereo unspecified)	170 nM

Other lines, results leading:

IC50	SMILES
2450 nM	Cc1cc(C)cc(C(C)(C)CN(CC(=O)NC(CCCCN)B(O)O)C(=O)CCc2ccccc2)c1 (stereo unspecified)
2390 nM	Cc1cc(C)cc(C(C)(C)CN(CC(=O)NC(CCC/N=C/N)B(O)O)C(=O)CCc2ccccc2)c1 (stereo unspecified)
1300 nM	CC(C)(CN(CC(=O)NC(CCCCN)B(O)O)C(=O)CCc1ccccc1)c1ccccc1 (stereo unspecified)
1500 nM	NCCCCC(NC(=O)CN(CCc1ccccc1)C(=O)CCc1ccccc1)B(O)O (stereo unspecified)

— ChEMBL document CHEMBL1130738, “Rational design of boropeptide thrombin inhibitors: beta, beta-dialkyl-phenethylglycine P2 analogs of DuP 714 with greater selectivity over complement factor I and an improved safety profile” (Bioorg Med Chem Lett, 1998)
